Measured values: US4497806A, “Triorganotin compounds, antifungal and antibacterial compositions containing same, and method of using same” (priority 1983, dated 1985)

Experiments:
[1] = tested on: Cladosporium carpophilium (ATCC 12117); experiment: Antifungal activity, agar plate growth inhibition; type: cell-based, Cladosporium carpophilum; conditions: for growth inhibition: 14 days
Experimental: (§1) Dilutions of the sterile solutions were prepared and added to liquified potato dextrose agar (Difco) to yield final concentrations of 100, 10 and 1 μg/ml. The agar, containing the appropriate organotin compound, was poured into sterile petri dishes and allowed to solidify over night. The agar surface was inoculated centrally with a 2 mm^2 portion of the growth from a ten-day-old culture of each fungus of the group consisting of Aspergillus niger, Chaetomium globosum, Cladosporium carpophilum, Fusarium moniliforme, Myrotheium verrucaria, Penicillium notatum, Rhizopus stolonifer, Trichoderma viride and Trichophyton mentagrophytes, or from a two-day-old culture of Saccharomyces cerevisiae. Inoculated plates were incubated for 14 days and observations of growth inhibition were made by measuring the diameters of the colonies present on the agar surface.
(§2) A solvent was included in all evaluations, as were growth controls for all fungal species.
(§3) The following compounds were tested for comparative purposes: [drawing 6] These compounds were tested for antifungal activity in the same manner as the triorganotin 5-nitro-2-furoates of the present invention.

[2] = tested on: Staphylococcus aureus; experiment: Antibacterial activity, agar growth inhibition; type: cell-based; set-up: key to growth inhibition: -: no inhibition of growth; +: partial inhibition; 2+: complete inhibition; conditions: Gram-positive, 24 hours at 37° C.
Experimental: (§4) The antibacterial activity of Compounds A-E was investigated by means of incorporating the compounds into sterile tryptic soy agar (Difco) at levels of 100, 10, and 1 μg/ml. The agar was also […] with a 1:100 dilution of an 18-hour old culture of the desired bacterial species in sterile distilled water. The plates were incubated for 24 hours at 37° C. with each bacterial strain. Observations of bacterial growth inhibition were made following the appropriate incubation period.
(§5) A solvent control was included in all evaluations, as were growth controls for all bacteria species.
(§6) Comparative compounds 1-5 above were employed for comparison purposes. These compounds were tested for antibacterial activity in the same manner as the triorganotin 5-nitro-2-furoates of the present invention.
(§7) All of the bacteria tested were obtained from the culture collection of the Department of Biological Sciences, St. John's University.
(§8) The ability of Compound B to inhibit the growth of other Gram-positive bacteria, using the same test procedures as described for the antibacterial activity determined in Table III above, is illustrated in Table IV below.

[3] = tested on: Pseudomonas aeruginosa; experiment: Antibacterial activity, agar growth inhibition; type: cell-based; conditions: for growth inhibition: Gram-negative, 24 hours at 37° C.
Experimental: (§9) The agar was also needed with a 1:100 dilution of an 18-hour old culture of the desired bacterial species in sterile distilled water. The plates were incubated for 24 hours at 37° C. with each bacterial strain. Observations of bacterial growth inhibition were made following the appropriate incubation period.
as §5
(§10) These compounds were tested for antibacterial activity in the same manner as the triorganotin 5-nitro-2-furoates of the present invention.
as §7

[4] = tested on: Escherichia coli; experiment: Antibacterial activity, agar growth inhibition; type: cell-based; conditions: for growth inhibition: Gram-negative, 24 hours at 37° C.
Experimental: as §9, §5, §10, §7

[5] = tested on: Trichoderma viride (ATCC 8678); experiment: Antifungal activity, agar plate growth inhibition; type: cell-based; conditions: 14 days
Experimental: as §1, §2, §3

[6] = tested on: Trichophyton mentagrophytes (ATCC 9129); experiment: Antifungal activity, agar plate growth inhibition; type: cell-based; conditions: 14 days
Experimental: as §1, §2, §3

[7] = tested on: Myrothecium verrucaria (ATCC 9095); experiment: Antifungal activity, agar plate growth inhibition; type: cell-based; conditions: 14 days
Experimental: as §1, §2, §3

[8] = tested on: Aspergillus niger (ATCC 12845); experiment: Antifungal activity, agar plate growth inhibition; type: cell-based; conditions: 14 days
Experimental: as §1, §2, §3

[9] = tested on: Fusarium moniliforme (ATCC 10052); experiment: Antifungal activity, agar plate growth inhibition; type: cell-based; conditions: 14 days
Experimental: as §1, §2, §3

[10] = tested on: Saccharomyces cerevisiae (ATCC 9896); experiment: Antifungal activity, agar plate growth inhibition; type: cell-based; conditions: 14 days
Experimental: as §1, §2, §3

[11] = tested on: Chaetomium globosum (ATCC 6205); experiment: Antifungal activity, agar plate growth inhibition; type: cell-based; conditions: 14 days
Experimental: as §1, §2, §3

[12] = tested on: Penicillium notatum (ATCC 9179); experiment: Antifungal activity, agar plate growth inhibition; type: cell-based; conditions: for growth inhibition: 14 days
Experimental: as §1, §2, §3

[13] = tested on: Rhizopus stolonifer (ATCC 10404); experiment: Antifungal activity, agar plate growth inhibition; type: cell-based; conditions: 14 days
Experimental: as §1, §2, §3

[14] = tested on: Bacillus subtilis; experiment: Antibacterial activity, agar growth inhibition; type: cell-based; set-up: key: -: no inhibition of growth; +: partial inhibition; 2+: complete inhibition; conditions: Gram-positive; 1 μg/ml; 24 hours at 37° C.
Experimental: as §4, §5, §6, §7, §8

Trimethyltin 5-nitro-2-furoate [Compound E]
completely inhibited: growth inhibition (in words) ([1]; 10 μg/ml) | growth inhibition (in words) ([4]; 100 μg/ml) | growth inhibition (in words) ([12]; 100 μg/ml)
2+: growth inhibition ([1]; 10 μg/ml) | growth inhibition ([1]; 100 μg/ml) | growth inhibition ([7]; 100 μg/ml) | growth inhibition ([12]; 100 μg/ml)
-: growth inhibition ([2]; 1 μg/ml) | growth inhibition ([2]; 10 μg/ml) | growth inhibition ([3]; 1 μg/ml) | growth inhibition ([3]; 10 μg/ml) | growth inhibition ([4]; 1 μg/ml) | growth inhibition ([4]; 10 μg/ml) | growth inhibition ([8]; 1 μg/ml) | growth inhibition ([9]; 1 μg/ml) | growth inhibition ([10]; 1 μg/ml) | growth inhibition ([10]; 10 μg/ml) | growth inhibition ([10]; 100 μg/ml) | growth inhibition ([11]; 1 μg/ml) | growth inhibition ([12]; 1 μg/ml)
showed activity: activity towards the Gram-negative bacterium (in words) [3] | activity towards the Gram-negative bacterium (in words) [4]
+: growth inhibition ([1]; 1 μg/ml) | growth inhibition ([5]; 1 μg/ml) | growth inhibition ([5]; 10 μg/ml) | growth inhibition ([5]; 100 μg/ml) | growth inhibition ([6]; 1 μg/ml) | growth inhibition ([6]; 10 μg/ml) | growth inhibition ([6]; 100 μg/ml) | growth inhibition ([7]; 1 μg/ml) | growth inhibition ([7]; 10 μg/ml) | growth inhibition ([8]; 10 μg/ml) | growth inhibition ([8]; 100 μg/ml) | growth inhibition ([9]; 10 μg/ml) | growth inhibition ([9]; 100 μg/ml) | growth inhibition ([11]; 10 μg/ml) | growth inhibition ([11]; 100 μg/ml) | growth inhibition ([12]; 10 μg/ml) | growth inhibition ([13]; 1 μg/ml) | growth inhibition ([13]; 10 μg/ml) | growth inhibition ([13]; 100 μg/ml)

CCOC(=Nc1ccccc1)[S][Sn]([c]1ccccc1)([c]1ccccc1)[c]1ccccc1 [compound 4, Ethyl N--phenyl-S--(triphenylstannyl)iso-thiocarbamate, reference compound]
-: growth inhibition [14] | growth inhibition ([4]; 1 μg/ml) | growth inhibition ([4]; 10 μg/ml) | growth inhibition ([5]; 1 μg/ml) | growth inhibition ([10]; 1 μg/ml)
2+: growth inhibition ([1]; 100 μg/ml) | growth inhibition ([6]; 10 μg/ml) | growth inhibition ([6]; 100 μg/ml) | growth inhibition ([11]; 100 μg/ml)
+: growth inhibition ([1]; 1 μg/ml) | growth inhibition ([1]; 10 μg/ml) | growth inhibition ([5]; 10 μg/ml) | growth inhibition ([5]; 100 μg/ml) | growth inhibition ([6]; 1 μg/ml) | growth inhibition ([7]; 1 μg/ml) | growth inhibition ([7]; 10 μg/ml) | growth inhibition ([7]; 100 μg/ml) | growth inhibition ([8]; 1 μg/ml) | growth inhibition ([8]; 10 μg/ml) | growth inhibition ([8]; 100 μg/ml) | growth inhibition ([9]; 1 μg/ml) | growth inhibition ([9]; 10 μg/ml) | growth inhibition ([9]; 100 μg/ml) | growth inhibition ([10]; 10 μg/ml) | growth inhibition ([10]; 100 μg/ml) | growth inhibition ([11]; 1 μg/ml) | growth inhibition ([11]; 10 μg/ml) | growth inhibition ([12]; 1 μg/ml) | growth inhibition ([12]; 10 μg/ml) | growth inhibition ([12]; 100 μg/ml) | growth inhibition ([13]; 1 μg/ml) | growth inhibition ([13]; 10 μg/ml) | growth inhibition ([13]; 100 μg/ml)
partially: growth inhibition (in words) ([4]; 100 μg/ml)

Tri(2-phenyl-2,2-dimethylethyl)tin 5-nitro-2-furoate [Compound D]
-: growth inhibition ([1]; 1 μg/ml) | growth inhibition ([1]; 10 μg/ml) | growth inhibition ([1]; 100 μg/ml) | growth inhibition ([2]; 1 μg/ml) | growth inhibition ([3]; 1 μg/ml) | growth inhibition ([3]; 10 μg/ml) | growth inhibition ([3]; 100 μg/ml) | growth inhibition ([4]; 1 μg/ml) | growth inhibition ([4]; 10 μg/ml) | growth inhibition ([4]; 100 μg/ml) | growth inhibition ([5]; 1 μg/ml) | growth inhibition ([5]; 10 μg/ml) | growth inhibition ([5]; 100 μg/ml) | growth inhibition ([7]; 1 μg/ml) | growth inhibition ([8]; 1 μg/ml) | growth inhibition ([8]; 10 μg/ml) | growth inhibition ([8]; 100 μg/ml) | growth inhibition ([9]; 1 μg/ml) | growth inhibition ([9]; 10 μg/ml) | growth inhibition ([9]; 100 μg/ml) | growth inhibition ([10]; 1 μg/ml) | growth inhibition ([10]; 10 μg/ml) | growth inhibition ([10]; 100 μg/ml) | growth inhibition ([11]; 1 μg/ml) | growth inhibition ([12]; 1 μg/ml) | growth inhibition ([13]; 1 μg/ml) | growth inhibition ([13]; 10 μg/ml) | growth inhibition ([13]; 100 μg/ml)
+: growth inhibition ([6]; 1 μg/ml) | growth inhibition ([6]; 10 μg/ml) | growth inhibition ([6]; 100 μg/ml) | growth inhibition ([7]; 10 μg/ml) | growth inhibition ([7]; 100 μg/ml) | growth inhibition ([11]; 10 μg/ml) | growth inhibition ([11]; 100 μg/ml) | growth inhibition ([12]; 10 μg/ml) | growth inhibition ([12]; 100 μg/ml)
